Data taken from patent US20140213576A1, “NOVEL COMPOUND USEFUL FOR THE TREATMENT OF DEGENERATIVE AND INFLAMMATORY DISEASES” (GALAPAGOS NV, priority 2013, published 2014).
Several values for one entry are separate records, joined by “and”; a condition that tells them apart may be missing. Equal entries are not always repeated.

Experiments:
[1] = target: T1, Recombinant human TYK2 catalytic domain (Homo sapiens, UniProt P29597); assay: TYK2 inhibition assay (polyGT substrate); format: biochemical; conditions: 0.1 μM ATP, individual determinations, read-out: IC50 against TYK2
T1 construct: Recombinant human TYK2 catalytic domain (amino acids 871-1187; catalog number 08-147); purchased Carna biosciences 08-147
T1 sequence (P29597 871-1187): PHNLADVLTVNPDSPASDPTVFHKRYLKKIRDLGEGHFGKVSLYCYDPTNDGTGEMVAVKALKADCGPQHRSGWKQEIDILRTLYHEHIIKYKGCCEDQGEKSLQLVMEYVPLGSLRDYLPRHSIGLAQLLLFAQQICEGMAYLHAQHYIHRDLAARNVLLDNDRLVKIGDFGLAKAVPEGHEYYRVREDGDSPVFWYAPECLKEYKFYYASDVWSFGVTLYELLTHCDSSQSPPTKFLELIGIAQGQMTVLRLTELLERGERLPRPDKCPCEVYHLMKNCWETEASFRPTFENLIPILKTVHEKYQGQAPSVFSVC
Method: Recombinant human TYK2 catalytic domain (amino acids 871-1187; catalog number 08-147) was purchased from Carna biosciences. 5 ng of TYK2 was incubated with 12.5 μg polyGT substrate (Sigma catalog number P0275) in kinase reaction buffer (25 mM Hepes pH 7.2, 50 mM NaCl, 0.5 mM EDTA, 1 mM DTT, 5 mM MnCl2, 10 mM MgCl2, 0.1% Brij-35, 0.1 μM non-radioactive ATP, 0.125 μCi ^33P-gamma-ATP (GE Healthcare, catalog number AH9968) final concentrations) with or without 5 μL containing test compound or vehicle (DMSO, 1% final concentration), in a total volume of 25 μL, in a polypropylene 96-well plate (Greiner, V-bottom). After 90 min at 30° C., reactions were stopped by adding 25 μL/well of 150 mM phosphoric acid. […] 40 μL/well of Microscint-20 was added, the top of the plates was sealed and readout was performed using the Topcount (Perkin Elmer). Kinase activity was calculated by subtracting counts per min (cpm) obtained in the presence of a positive control inhibitor (10 μM staurosporine) from cpm obtained in the presence of vehicle. The ability of a test compound to inhibit this activity was determined as:
Percentage inhibition=((cpm determined for sample with test compound present−cpm determined for sample with positive control inhibitor) divided by (cpm determined in the presence of vehicle−cpm determined for sample with positive control inhibitor))*100. […]

[2] = tested on: Collagen Induced Arthritis (CIA); assay: Rat CIA model; format: in vivo; conditions: p.o., therapeutic dosing day 16 to day 30
Method: Completed Freund's adjuvant (CFA) and incomplete Freund's adjuvant (IFA) were purchased from Difco. Bovine collagen type II (CII), lipopolysaccharide (LPS), and Enbrel was obtained from Chondrex (Isle d'Abeau, France); Sigma (P4252, L'Isle d'Abeau, France), […] (25 mg injectable syringe, France) Acros Organics (Palo Alto, Calif.), respectively. All other reagents used were of reagent grade and all solvents were of analytical grade. Dark Agouti rats (male, 7-8 weeks old) were obtained from Harlan Laboratories (Maison-Alfort, France). Rats were kept on a 12 h light/dark cycle (0700-1900). Temperature was maintained at 22° C., and food and water were provided ad libitum. […] A compound of interest was typically tested at 5 doses, e.g. 1, 2, 3, 5, and 10 mg/kg, p.o. Arthritis is scored according to the method of Khachigian 2006, Lin et al 2007 and Nishida et al. 2004). […] To permit the meta-analysis of multiple studies the clinical score values were normalised as follows: AUC of clinical score (AUC score): The area under the curve (AUC) from day 1 to day 14 was calculated for each individual rat. The AUC of each animal was divided by the average AUC obtained for the vehicle in the study from which the data on that animal was obtained and multiplied by 100 (i.e. the AUC was expressed as a percentage of the average vehicle AUC per study). […]

IC50 [1]: 844 nM and 461 nM and 470 nM and 488 nM and 759 nM and 754 nM and 1000 nM and 501 nM and 688 nM
SMILES: CCc1cc(C2CN(S(C)(=O)=O)C2)ncc1N(C)c1cc2c(cn1)ncn2C [Compound 1, [4-Ethyl-6-(1-methanesulfonyl-azetidin-3-yl)-pyridin-3-yl]-methyl-(1-methyl-1H-imidazo[4,5-d]pyridin-6-yl)-amine]
dose from which statistically significant efficacy was displayed [2]: ≥ 3 mg/kg
